Converted amounts (≈) assume the structure as drawn.
settings: buffer; pH 7.4; 200.0 µM

Compound | solubility kinetic [µg/mL]
CCCCN1C(=O)CCC(C(=O)O)C1c1ccc([N+](=O)[O-])cc1 (stereo not given) | > 48.1
Cc1ccccc1NC(=O)Cc1cccc(C(F)(F)F)c1 | 5.3 (≈ 18.1 µM)
O=C(Cn1c(=S)[nH]c2ccccc2c1=O)N1CCc2ccccc2C1 | 3.9 (≈ 11.1 µM)
O=C(/C=C/c1ccc(Cl)cc1)NCCCn1ccnc1 | > 43.5
CS(=O)(=O)N1CCc2cc(C(=O)Nc3cccc([N+](=O)[O-])c3)ccc21 | < 0.3
NC1=C([N+](=O)[O-])C(c2ccc3c(c2)OCO3)C2=C(CCCC2=O)O1 (stereo not given) | 48.4 (≈ 147 µM)
c1ccc2nc(SCc3cn4ccccc4n3)cnc2c1 | > 43.9
Cc1ccc(CN2CC(C(=O)Nc3ncccc3C)CC2=O)cc1 (stereo not given) | > 48.5
COc1cc2ccccc2cc1C(=O)N1CCc2ccccc21 | 1.9 (≈ 6.26 µM)
CSc1ncccc1C(=O)OCC(=O)c1ccc(C)s1 | 3.5 (≈ 11.4 µM)
CCc1ccc(C(=O)NNC(=O)[C@H](C)NC(=O)c2ccco2)cc1 | > 49.4
Cc1cccc(NC(=O)c2ccc(S(=O)(=O)N3CCOCC3)cc2)n1 | 48.2 (≈ 133 µM)
CC1=C(C(=O)OCc2ccccc2)C(c2ccccc2)NC(=O)N1 (stereo not given) | 2.8 (≈ 8.69 µM)
COc1ccccc1CNC(=O)c1ccc2c(c1)OCO2 | > 42.8
O=C(Nc1nccs1)C1CC=CCC1 (stereo not given) | 22.7 (≈ 109 µM)
O=[N+]([O-])c1ccc2nc(-c3ccccn3)[nH]c2c1 | 5 (≈ 20.8 µM)
O=C(CSc1nc2ccccc2c2c1CCCC2)N1CCOCC1 | 9.9 (≈ 28.9 µM)
CC1=C(C)CC(C(=O)NC(C)CCc2ccccc2)C(C(=O)O)C1 (stereo not given) | > 49.4
CCOc1c(Nc2ccccc2O)c(=O)c1=O | > 35
CC(=O)NS(=O)(=O)c1ccc(NC(=S)NC(=O)C2CCC2)cc1 | > 53.3
Cl.Oc1ccccc1CNCC12CC3CC(CC(C3)C1)C2 | > 46.2
Cc1ccc(C)c(NC(=O)CCN2CCC(C)CC2)c1 | > 41.2
C#CCN(C)CCCOc1ccc(Cl)cc1Cl.Cl | 8.7
Cc1ccc([N+](=O)[O-])cc1NC(=O)Cc1ccc(F)cc1 | < 0.3

Compound | solubility kinetic [µg/mL]
O=C(Nc1ccc(Br)cc1)N1CCCCCC1 | 7.6 (≈ 25.6 µM)
Fc1ccccc1-c1nc2ccccc2[nH]1 | > 31.8
COc1ccccc1NC(=S)NC(=O)CCc1ccccc1 | 0.7 (≈ 2.23 µM)
Brc1ccccc1C1Nc2cccc3cccc(c23)N1 | 2.8 (≈ 8.61 µM)
COc1cccc(OCCn2cc(C(C)=O)c3ccccc32)c1 | 10.9 (≈ 35.2 µM)
Cc1noc(C)c1S(=O)(=O)Nc1cccc(CO)c1 | > 42.3
CCC(CC)C(=O)N1CC(=O)Nc2ccc(C)cc2C1c1ccccc1 (stereo not given) | 2.4 (≈ 6.85 µM)
O=C1NC(=O)C(c2ccc(F)cc2)N1 (stereo not given) | > 29.1
Cl.c1cncc(CNc2ncnc3sc4c(c23)CCC4)c1 | 7.5
CC(C)N1C(=O)c2ccccc2C1C(=O)NCCc1ccccc1 (stereo not given) | 48 (≈ 149 µM)
COc1ccccc1NC(=O)CCN1CCN(C)CC1 | 38.6 (≈ 139 µM)
COc1cc2ncnc(NCc3cccc(F)c3F)c2cc1OC | 10.7 (≈ 32.3 µM)
CS(=O)(=O)N1CCc2cc(C(=O)N3CCCC3)ccc21 | > 44.2
Cc1ccc(S(=O)(=O)N2CCOCC2)cc1C(=O)N1CCN(c2ccc(C(F)(F)F)cn2)CC1 | 68.8 (≈ 138 µM)
N#CC1(NC(=O)CSc2nnc3n2CCCCC3)CCCCC1 | > 50
CCC(C)N(C)C1CCN(C(=S)Nc2ccc(OC)cc2)CC1 (stereo not given) | > 50.3
CCOC(=O)c1ccc(NCCOC)c([N+](=O)[O-])c1 | 33.2 (≈ 124 µM)
Cc1ccc(S(=O)(=O)N(C)CC(=O)Nc2cccnc2)cc1 | 41.5 (≈ 130 µM)
O=C(NCCN1CCCCC1)Nc1ccc(Cl)cc1 | > 42.3
O=C(NCc1cccnc1)c1cnc2ccccc2n1 | > 39.6
CC(=O)NC(c1ccc(C)cc1)c1cc(Cl)c2cccnc2c1O (stereo not given) | < 0.4
COc1cc(C(=S)N2CCOCC2)cc(OC)c1O | > 42.5
CN(C1CCCCC1)S(=O)(=O)c1ccc(=S)[nH]c1 | 22.8 (≈ 79.6 µM)
O=C(CN1CCCCC1)Nc1ccccc1C(=O)NC1CC1 | > 45.2

Compound | solubility kinetic [µg/mL]
COc1ccc(C(=O)OCC(=O)Nc2sccc2C(N)=O)cc1OC | 1 (≈ 2.74 µM)
CC1Cc2ccccc2N1S(=O)(=O)c1cnc(Cl)c(Br)c1 (stereo not given) | < 0.4
CC(=C\c1ccccc1)/C=C1/SC(=S)N(CCC(=O)O)C1=O | 34.7 (≈ 104 µM)
CC(NC(=O)CSc1ccccc1)c1ccccc1 (stereo not given) | 37.1 (≈ 137 µM)
COc1ccc(C(C)NC(=O)c2ccncc2)cc1OC (stereo not given) | > 42.9
O=C(COC(=O)/C=C/c1cccc(Cl)c1)Nc1c(F)cccc1F | 6.3 (≈ 17.9 µM)
CC1=CC(C)C(COC(=O)CN2CCCCC2)C(C)C1 (stereo not given) | 8.4 (≈ 30.1 µM)
Cc1ccc(C(=O)Nc2ccc3c(c2)OCCO3)cc1S(=O)(=O)N1CCOCC1 | 41.6 (≈ 99.4 µM)
CC1(C)Cc2ccccc2-c2[nH]c(=S)[nH]c(=O)c21 | 30.1 (≈ 117 µM)
O=C(c1ccc(F)cc1)N1CCC(C(=O)N2CCN(c3ncccn3)CC2)CC1 | 59.2 (≈ 149 µM)
O=C(Nc1ccc(Cl)cn1)c1cc2c(s1)-c1ccccc1OC2 | < 0.4
Cn1c(SCC(=O)Nc2sccc2C#N)nnc1C1CC1 | > 47.9
COc1cc2c(cc1OC)CC(C(=O)NCc1ccccc1)NC2 (stereo not given) | 33.2 (≈ 102 µM)
Cc1noc(C)c1COC(=O)c1csc2c1CCC(C)C2 (stereo not given) | 1.4 (≈ 4.58 µM)
COc1ccc(C(C)=O)cc1CN1C(=O)NC(CC(C)C)C1=O (stereo not given) | > 47.8
Cc1ccc(S(=O)(=O)c2c(C)cc(C)[nH]c2=O)c(C)c1 | > 43.7
Cc1ccc(C(=O)c2cc(Br)ccc2N)cc1 | 2.9 (≈ 9.99 µM)
CCN1CCN(C(=O)NC2CCCCC2)CC1.O=C(O)C(=O)O | > 49.4
Cc1ccccc1OCC(=O)Nc1ccccc1-c1ccccc1 | < 0.7
Cc1onc(-c2c(Cl)cccc2Cl)c1C(=O)N=S(C)(=O)c1ccccc1 (stereo not given) | 1.8 (≈ 4.4 µM)
Nc1c(C(=O)[O-])sc2nc3c(cc12)CCCC3 | 23.2
CN(C1CCCCC1)S(=O)(=O)c1cccc2nsnc12 | > 46.7
O=C(/C=C/c1cccc([N+](=O)[O-])c1)OCC(=O)c1ccccc1 | < 0.7
O=C(NCCNc1ccc([N+](=O)[O-])cc1Cl)c1ccccc1F | 1.8 (≈ 5.33 µM)

Compound | solubility kinetic [µg/mL]
COc1ccccc1NC(=O)c1cc(Cl)nc2ccccc12 | 3.4 (≈ 10.9 µM)
CCCCOc1cc(C(=O)OCCN(CC)CC)ccc1N | 42.7 (≈ 138 µM)
Cc1ccc(NC(=S)NCc2ccco2)c(C)c1 | > 39.1
Cc1oc(CC(C)C)cc1C(=O)NCCCC(=O)O | > 40.1
O=C(O)/C=C/C(=O)Nc1c(F)cccc1F | 27.1 (≈ 119 µM)
O=C1CNC(c2ccccc2Cl)c2cc(Br)ccc2N1 (stereo not given) | 0.8 (≈ 2.28 µM)
Cc1ccccc1NC(=O)CC(=O)c1ccccc1 | > 38
COC(=O)c1ccc(NC(=O)NC(=O)Oc2ccccc2)cc1 | 42.5 (≈ 135 µM)
Cc1ncc(/C=C2\C(=O)Nc3ccccc32)[nH]1 | 12.1 (≈ 53.7 µM)
CC(=O)Oc1ccc2nc(-c3ccc(Br)o3)oc(=O)c2c1 | 4.2 (≈ 12 µM)
COC(OC)c1ccc(C#N)c(SCc2ccccc2)n1 | 9.4 (≈ 31.3 µM)
CCOC(=O)C1(C)Oc2cccnc2NC1=O (stereo not given) | 35.2 (≈ 149 µM)
COc1cccc(CN(C)C(=S)Nc2ccc(C)c(C)c2)c1 | 25.1 (≈ 79.8 µM)
CC(C)(C)NC(=O)CN(C(=O)C1CSC(=O)C1)c1ccccc1F (stereo not given) | 33.3 (≈ 94.5 µM)
CC1Oc2ccccc2N(CC(=O)Nc2ccccc2F)C1=O (stereo not given) | 1.2 (≈ 3.82 µM)
O=C1CC(C(=O)N2CCCc3ccccc32)CN1c1ccc(F)cc1 (stereo not given) | 46.5 (≈ 137 µM)
Cc1ccc(O)c(Nc2c3ccccc3nc3ccccc23)c1 | 1.5 (≈ 4.99 µM)
CCOC(=O)c1c(C)n(C)c2c1cc(OC(C)=O)c1ccccc12 | < 0.7
CC(C)C(=O)Nc1nc(-c2ccc([N+](=O)[O-])cc2)cs1 | 2.6 (≈ 8.92 µM)
COc1cc(N)c(Cl)cc1C(=O)OCC(=O)NCC1CCCCC1 | 4.8 (≈ 13.5 µM)
O=C(C[n+]1ccccc1)Nc1ccccc1[N+](=O)[O-].[Cl-] | 34
O=C(COC(=O)C1(c2ccccc2F)CCCC1)N1CCNC1=O | > 50.2
CN(C)S(=O)(=O)c1ccc(C(=O)NC(=O)CSc2nncs2)cc1 | > 58
COc1ccccc1CN(C)CC(=O)Nc1cccc2ccccc12 | 18.9 (≈ 56.5 µM)

Compound | solubility kinetic [µg/mL]
O=C(CSc1nc2ccccc2c(=O)[nH]1)Nc1ccccc1O | 3.8 (≈ 11.6 µM)
COc1ccccc1Oc1ccccc1[N+](=O)[O-] | 25.1 (≈ 102 µM)
COc1ccc(C2CC(=O)C(C=NCCO)=C(O)C2)cc1 (stereo not given) | 38 (≈ 131 µM)
Nc1nc(Nc2ccccc2F)nc(N2CCOCC2)c1[N+](=O)[O-] | 8.2 (≈ 24.5 µM)
Cc1cccc(C(=O)Nc2cccc(C(=O)Nc3cc(C)ccn3)c2)c1 | 0.9 (≈ 2.61 µM)
Cc1ccc(C(=O)CSc2nc(N)cc(=O)[nH]2)cc1C | 12.8 (≈ 44.2 µM)
CCSS(=O)(=O)c1cccc2cccnc12 | > 38
C=CCSc1nc(N)c2c3c(sc2n1)CN(C)CC3 | 43.5 (≈ 149 µM)
CC(C)Oc1ccc(C(=O)Nc2ccc3c(c2)n(C)c(=O)n3C)cc1 | 13.5 (≈ 39.8 µM)
CNC(=O)c1oc(-c2ccccc2)nc1C | > 32.4
O=C(Nc1ccccc1F)NC1CCCc2ccccc21 (stereo not given) | 2 (≈ 7.03 µM)
Cc1ccc(F)cc1S(=O)(=O)NCc1ccc(N2CCN(C)CC2)cc1 | 16 (≈ 42.4 µM)
Cl.FC(F)Sc1ccc(NC2=NCCCCC2)cc1 | 45
Cc1ccc(/C(O)=C2\C(=O)C(=O)N(C)C2c2ccc([N+](=O)[O-])cc2)cc1 (stereo not given) | > 52.9
CN1C(=O)NC(c2cccc([N+](=O)[O-])c2)C2=C1CC(C)(C)CC2=O (stereo not given) | 34.6 (≈ 105 µM)
C=CCNc1nc(N)c([N+](=O)[O-])c(NCc2ccccc2)n1 | 0.7 (≈ 2.33 µM)
O=c1oc(-c2ccco2)nc2sc3c(c12)CCCCC3 | < 0.6
CCOc1ccccc1NC(=O)NC1CCCCCCC1 | 0.4 (≈ 1.38 µM)
CCOC(=O)CN1C(=O)C(=O)N(Cc2ccccc2F)C1=O | > 46.2
Cc1ccc(C)c(C(C)NC(=O)c2ccc(Br)o2)c1 (stereo not given) | 42.1 (≈ 131 µM)
O=C1C(=O)N(CC(=O)N2CCCC2)c2ccccc21 | 38.2 (≈ 148 µM)
N#C/C(=C(/O)CN1CCCC1)c1nc(-c2ccccc2)cs1 | > 46.7
CCOc1ccccc1/C=C/c1nc2ccccc2[nH]c1=O | 1.6 (≈ 5.47 µM)
CCCCN(C)Cc1c(C)[nH]c2ccccc2c1=O | > 38.8

From PubChem BioAssay AID1996
